Results taken from PubChem BioAssay AID623930 (Southern Research Specialized Biocontainment Screening …, 2012).
Active and inactive are the calls of the source.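 Rule for the calls: active = viability below 70% at one or more concentrations in every replicate; inactive = viability above 70% at all doses, or replicates disagree.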

Tested on: not listed separately
Test: viability of Vero E6 cells – cell-based, synthesized analogs, extended characterization 2, cytotoxicity control for West Nile virus antiviral project, SAR follow-up (AID 623930)
Details: Vero E6 viability, CellTiter-Glo luminescence, 96 h; at 100 µM (top of the series)

| SMILES | viability |
| --- | --- |
| O=C(CSc1nc2cccc(F)c2c(=O)n1-c1ccc(Cl)c(Cl)c1)Nc1ccc2c(c1)CCC2 | 71.9% (inactive) |
| O=C(CSc1nc2ccccc2c(=O)n1-c1ccc(Cl)c(F)c1)c1nc(-c2ccccc2)cs1 | 72% (inactive) |
| O=C(CSc1nc2ccccc2c(=O)n1-c1ccc(Cl)c(Cl)c1)Nc1ccc2c(c1)CCC2 | 75.2% (inactive) |
| O=C(CSc1nc2c(F)cccc2c(=O)n1-c1cc(Cl)cc(Cl)c1)Nc1nc(-c2ccccc2)cs1 | 76% (inactive) |
| N#Cc1ccc(-n2c(SCC(=O)Nc3nc(-c4ccccc4)cs3)nc3ccccc3c2=O)cc1F | 78.4% (inactive) |
| O=C(CSc1nc2c(F)cccc2c(=O)n1-c1ccc(Cl)c(Cl)c1)Nc1nc(-c2ccccc2)cs1 | 73.3% (inactive) |
| O=C(CSc1nc2ccccc2c(=O)n1-c1c(Cl)cccc1Cl)Nc1ccc2c(c1)CCC2 | 74.6% (inactive) |

Tested on: Vero E6 viability, CellTiter-Glo luminescence, 96 h
Test: as above
Details: not given

| SMILES | CC50 [µM] |
| --- | --- |
| O=C(CSc1nc2ccccc2c(=O)n1-c1c(Cl)cccc1Cl)Nc1nc(-c2ccccc2)cs1 | 52.6 |
| O=C(CSc1nc2c(Cl)cccc2c(=O)n1-c1cc(Cl)cc(Cl)c1)Nc1ccc2c(c1)CCC2 | 72.2 |
| O=C(CSc1nc2c(F)cccc2c(=O)n1-c1cc(Cl)cc(Cl)c1)Nc1ccc2c(c1)CCC2 | 77 |
| O=C(CSc1nc2ccccc2c(=O)n1-c1cc(F)cc(F)c1)Nc1nc(-c2ccccc2)cs1 | 82.9 |
| O=C(CSc1nc2c(F)cccc2c(=O)n1-c1ccc(Cl)c(Cl)c1)Nc1ccc2c(c1)CCC2 | 34.5 |
| Cc1cc(-n2c(SCC(=O)Nc3nc(-c4ccccc4)cs3)nc3ccccc3c2=O)ccc1F | 87.8 |
